Read-outs that look alike come from different tables or passages of the source.
How the values were obtained:
[1] = test system: mature adipocytes (3T3-L1); assay: Cell viability assay (MTS) in mature adipocytes; conditions: for effect on viability of mature adipocytes: individual compound, 24 and 48 h; for effect on cell viability: compound alone at 25 and 50 μM
Protocol: (§5) 3T3-L1 mouse fibroblast were obtained from American Type Culture Collection (Manassas, Va.) and were cultured in Dulbecco's modified Eagle's medium (DMEM) (GIBCO, Grand Island, N.Y.) containing 10% bovine calf serum (BCS) until confluent. Two days after confluency, the cells were stimulated to differentiate with an induction medium (hereinafter “MDI”), which comprises DMEM containing 10% FBS, 167 nM insulin (Sigma), 0.5 μg of isobutylmethylxanthine (IBMX) (Sigma), and 1 μm of dexamethasone (Sigma) for two (2) days. Cells were then maintained on 10% FBS/DMEM with 167 nM insulin for another 2 days, followed by culturing with FBS/DMEM for an additional four days, at which time more than 90% of cells were mature adipocytes with accumulated fat droplets. All media contained 100 U/ml of penicillin, 100 μg/ml of streptomycin, and 292 μg/ml of glutamine. Cells were maintained at 37° C. in a 5% CO2 humidified environment.
(§6) Cell viability assay. Adipocytes were incubated with dimethyl sulfoxide (DMSO) (0.02%) or test compounds. Prior to measuring viability, treatment media were removed and replaced with 100 μl fresh 10% FBS/DMEM medium and 20 μl MTS solution (Promega, Madison, Wis.). Cells were then returned to the incubator for an additional 2 h before 25 μl of 10% sodium dodecyl sulfate (SDS) was added to stop the reaction. The absorbance was measured at 490 nm in a plate reader (μQuant Bio-Tek Instruments, Inc. Winooski, Vt.) to determine the formazan concentration, which is proportional to the number of live cells.
(§7) Adipocytes were treated with XN (25, 50 μM) and HK (25, 50, 75 μM) as individual compounds or in combination for 12, 24, and 48 h. After treatment, cell viability was determined by the MTS assay, as described in Example 1.
(§8) Adipocytes were treated with XN (25, 50 μM) and G (50, 100 μM) as individual compounds or in combination for 24 and 48 h. After treatment, cell viability was determined by the MTS assay, as described in Example 1.
(§9) Adipocytes were treated with XN (25, 50, 75 μM) and GS (25, 50, 75 μM) as individual compounds or in combination for 24 and 48 h. After treatment, cell viability was determined by the MTS assay, as described in Example 1.

[2] = test system: mature adipocytes (3T3-L1); assay: Apoptosis assay (ApoStrand ELISA, single stranded DNA) in mature adipocytes; type: cell-based, mouse; conditions: for effect on apoptosis of mature adipocytes (ssDNA): individual compound, XN e.g. 50 μM at 48 hrs; for increased apoptosis, alone: XN or GS alone; for effect on apoptosis: compound alone at 25 and 50 μM; for % Increase in apoptosis mean ± s.e.m.: mature adipocytes, concentration (μM) is the number in the treatment label
Protocol: Apoptosis assays. For the assessment of apoptosis, the ApoStrand ELISA Apoptosis Detection Kit (Biomol, Plymouth Meeting, Pa.) was used. This kit detects single stranded DNA, which occurs in apoptotic cells but not in necrotic cells or in cells with DNA breaks in the absence of apoptosis. Adipocytes were incubated with DMSO or the test compounds for the indicated times and at the indicated concentrations. Thereafter, treatment media was removed and the cells were fixed for 30 min and assayed according to the manufacturer's instructions.
The enhanced reduction in cell viability by XN plus HK was evaluated to determine if the reduction in cell viability was attributable to apoptosis.
The effects of XN and G on mature adipocytes apoptosis were investigated by measuring the changes of the levels of single strained DNA (ssDNA) in the cells.
(§1) The enhanced reduction in cell viability by XN plus GS was evaluated to determine if the reduction in cell viability was attributable to apoptosis.

mature adipocytes [3] = assay: Lipolysis in mature adipocytes; type: cell-based, mouse; conditions: for lipolysis: XN or GS alone, 12 h incubation
Protocol: Effects of XN and HK on lipolysis in mature adipocytes. Mature adipocytes were incubated with either control or test compounds for indicated times.

caspase-3/7 = assay: Caspase-3 and 7 activity assay (Caspase-Glo 3/7) in mature adipocytes; type: cell-based, mouse; conditions: for caspase-3/7 activity: individual compound, XN 25, 50 μM, HK 25, 50, 75 μM, 12 h
Protocol: Caspase-3 and 7 activity assay. Adipocytes were incubated with DMSO or the test compounds and the indicated times and concentrations. Thereafter, 100 μl of caspase-Glo 3/7 reagent (Promega, Madison, Wis.) was added to each sample and the cells were incubated for 1 h and assayed according to the manufacturer's instructions.
Effects of XN and HK on caspase-3/−7 activation and PARP cleavage. To confirm apoptosis in response to combined treatment with XN and HK, the activity of caspase-3/7 was evaluated.
The caspases 3/7 activity was measured using a commercially available Caspase Glo 3/7 assay kit (Promega, Madison, Wis.), as described in Example 1.

Bcl-2 protein = Bcl-2 protein expression (Western blot); type: cell-based, mouse; conditions: compound individually
Protocol: (§2) Western blot analysis. Following the indicated treatment, whole cell extracts were prepared by washing the cells with phosphate buffered saline (PBS) and suspending the cells in a lysis buffer (20 mM Tris, pH 7.5, 150 mM sodium chloride, 1 mM EDTA, 1 mM EGTA, 1% Triton X-100, 2.5 mM sodium pyrophosphate, 1 mM β-glycerophosphate, 1 mM sodium vanadate (Na3VO4), 1 μg/ml aprotinin, 1 μg/ml leupeptin, and 100 μg/ml phenylmethylsulfonyl fluoride). After 30 min of rocking at 4° C., the mixtures were centrifuged (10,000×g) for 10 min, and the supernatants were collected as whole-cell extracts. […] The protein concentration was determined by the method of Bradford with bovine serum albumin as the standard. […] Samples were heated to 70° C. for 10 min, separated by 12% acrylamide gels, and analyzed by immunoblotting. […]
(§3) Quantitative analysis of Western blot data. […] For statistical analysis, all data were expressed as integrated density values (IDV). For PARP, Bcl-2, and cytochrome c, IDVs were calculated as the density values of the specific protein bands/β-actin density values and expressed as percentage of the control.
To further investigate whether XN and GS affects the intrinsic apoptosis induction pathway, the expression of the anti-apoptotic Bcl-2 protein was evaluated by western blotting.

mature adipocytes [4] = assay: Hoechst staining of mature adipocytes; type: cell-based, mouse; conditions: XN or GS alone
Protocol: as §1

mature adipocytes [5] = assay: Lipid content of mature adipocytes after 7-day treatment; type: cell-based, mouse; conditions: individual compound, XN 6 μM and 12 μM, GS 12 μM and 25 μM, seven days
3T3-L1 pre-adipocytes = assay: Adipogenesis: lipid content (AdipoRed) during maturation of pre-adipocytes; type: cell-based, mouse; conditions: compound alone, days 0-6 of differentiation
Protocol: Quantification of lipid content and oil red O staining. Lipid content was measured using a commercially available kit (AdipoRed Assay Reagent; Cambrex Bio Science, Walkersville, Inc.). Briefly, test compositions and a 0.01% DMSO control were added with the induction medium for days 0-6 of adipogenesis. Medium was changed every 2 days. On day 6, intracellular lipid content was measured by AdipoRed Assay. Cells were washed with PBS (pH 7.4) and 200 μl of PBS was added to the wells. About 5 μl of AdipoRed reagent was added to each well. After 10 min, the plates were placed in the fluorometer and fluorescence was measured with excitation wavelength of 485 nm and emission wavelength of 572 nm. To visualize lipid content, treated cells were stained with oil red O and hematoxylin as described by Suryawan and Hu. After mounting with glycerol gelatin, three images for each dish were captured using ImagePro software (MediaCybernetics, Silver Spring, Md.).
Effects of XN and HK on adipogenesis of post-confluent pre-adipocytes during maturation. Post-confluent pre-adipocytes were induced to differentiate for 0-6 days in differentiation medium with or without XN or HK for indicated times. […]
To determine the synergistic effects of XN and GS on adipogenesis, the effect of XN and GS on inhibiting lipid accumulation in (FIG. 15A) and viability of (FIG. 15B) maturing 3T3-L1 adipocytes was determined.

cytochrome c = assay: Cytochrome c release from mitochondria (Western blot); type: cell-based, mouse; conditions: compound alone at 50 μM
Protocol: as §2, §3
(§4) Effects of XN and HK cytochrome c release from mitochondria and PARP cleavage in mature adipocytes. To further investigate whether XN and HK affects the intrinsic apoptosis induction pathway, the induction of cytochrome c release was evaluated by Western blotting.

[6] = test system: Poly (ADP-ribose) polymerase (PARP); assay: PARP cleavage in mature adipocytes (Western blot); type: cell-based, mouse; conditions: compound alone
Protocol: as §2, §3, §4

[7] = test system: mature adipocytes (3T3-L1); conditions: mouse, 48 h
Protocol: as §5, §6, §7, §8, §9

SMILES: O=c1c(-c2ccc(O)cc2)coc2cc(O)cc(O)c12 [G, 4,5,7-trihydroxyisoflavone]
- effect on viability of mature adipocytes ([1]; XN 25, 50 μM, G 50, 100 μM): did not affect the viability
- effect on apoptosis of mature adipocytes (ssDNA) [2]: did not affect apoptosis

SMILES: C/C=C1\C(=O)C[C@H]2[C@@H]3CCC4=CC(=O)CC[C@]4(C)[C@H]3CC[C@]12C [GS, Guggulsterone]
- effect on viability of mature adipocytes ([1]; XN or GS 25, 50, 75 μM): decreased the viability of mature adipocytes in a dose-dependent and time-dependent manner
- lipolysis (mature adipocytes [3]): increased lipolysis slightly
- caspase 3/7 activity (caspase-3/7; GS alone at 75 μM): increased caspase activity
- Bcl-2 protein level (Bcl-2 protein): decreased Bcl-2
- increased apoptosis, alone [2]: about 20%
- Hoechst staining, individual treatments (mature adipocytes [4]): small increase in staining
- lipid accumulation in mature adipocytes (mature adipocytes [5]): decreased lipid accumulation

SMILES: COc1cc(O)c(CC=C(C)C)c(O)c1C(=O)/C=C/c1ccc(O)cc1 [XN, Xanthohumol]
- effect on cell viability ([1]; 48 h): no effect
- effect on viability of mature adipocytes ([1]; XN 25, 50 μM, G 50, 100 μM): decreased the viability of mature adipocytes in a dose-dependent and time-dependent manner
- effect on viability of mature adipocytes ([1]; XN or GS 25, 50, 75 μM): decreased the viability of mature adipocytes in a dose-dependent and time-dependent manner
- % Decrease in viability mean ± s.e.m. ([1]; mature adipocytes, 48 h, concentration (μM) is the number in the treatment label): −2.8 ± 1.5%
- increase in lipolysis (mature adipocytes [3]; XN 50 μM alone): 20%
- lipolysis (mature adipocytes [3]): increased lipolysis slightly
- lipid accumulation during maturation (3T3-L1 pre-adipocytes): decreased lipid accumulation
- caspase-3/7 activity (caspase-3/7): increased caspase-3/7 activity in a dose-dependent manner
- Bcl-2 protein level (Bcl-2 protein): decreased Bcl-2
- increased apoptosis, alone [2]: about 20%
- effect on apoptosis ([2]; 24 h): no effect
- effect on apoptosis of mature adipocytes (ssDNA) [2]: increased apoptosis
- % Increase in apoptosis mean ± s.e.m. ([2]; 24 h): 51.0 ± 16.5%
- effect on cytochrome c release (cytochrome c): neither 50 μM of XN nor 50 μM of HK had an effect
- effect on PARP cleavage [6]: neither compound alone may affect
- Hoechst staining, individual treatments (mature adipocytes [4]): small increase in staining
- lipid accumulation in mature adipocytes (mature adipocytes [5]): decreased lipid accumulation

SMILES: C=CCc1ccc(O)c(-c2ccc(O)c(CC=C)c2)c1 [HK, Honokiol]
- cytotoxicity at 75 µM ([1]; Mus musculus, 3T3-L1, 48 h, read-out: decreased cell viability): 9.1 ± 2.5%
- effect on cell viability ([1]; 48 h): no effect
- lipid accumulation during maturation (3T3-L1 pre-adipocytes): increased lipid accumulation
- caspase-3/7 activity (caspase-3/7): increased caspase-3/7 activity in a dose-dependent manner
- increased apoptosis ([2]; alone at 75 μM, 24 h, P<0.05): 70.4±15.9%
- effect on apoptosis ([2]; 24 h): no effect
- % Increase in apoptosis mean ± s.e.m. ([2]; 24 h, listed as HK50): 10.8 ± 5.9%
- % Increase in apoptosis mean ± s.e.m. ([2]; 24 h, listed as HK75): 70.4 ± 15.9%
- % Decrease in viability mean ± s.e.m. [7]: −1.8 ± 1.5%
- effect on cytochrome c release (cytochrome c): neither 50 μM of XN nor 50 μM of HK had an effect
- effect on PARP cleavage [6]: neither compound alone may affect
